Experimental data published in US12150940B2, “WASp-protecting small molecules, compositions, methods and uses thereof in the treatment of innate and acquired immune-related disorders or conditions” (BAR ILAN UNIVERSITY, priority 2016, dated 2024).

Legend:
Jurkat T cells = assay: Lymphocyte activation in Jurkat T cells (CD69 and activated LFA-1, flow cytometry); type: cell-based, human; conditions: Jurkat T cells stimulated with PMA and Ionomycin, vs control
Protocol: FIGS. 9A and 9B, show 1×10^6 Jurkat T cells/ml, stimulated with PMA and Ionomycin, were treated with WASp-binding SMC #6 or control. After incubation, the cells were stained with anti-activated LFA-1 antibody (KIM127), followed by staining with Alexa488-Fluor goat anti-mouse IgG1 secondary antibody (FIG. 9B). Cells were co-stained with PE-Cy5™-conjugated mouse anti-human CD69 and lymphocyte activation was measured by flow-cytometry as described in the Experimental procedures (FIG. 9A). Histograms of negative control versus SMC #6 are presented.
PBMCs or Jurkat cells (about 3×10^5 cells) were incubated for 4 h, at 37° C. with 50 ng/ml PMA and 250 ng/ml lonomycin, or 40 ng/ml PMA and 6 μM Ionomycin, respectively, or left untreated. After incubation, the cells were collected and stained with 1 μg/ml anti-active human LFA-1 antibody (purified from KIM127 hybridoma sup, ATCC Cat #: CRL-2838, Sigma) for 30 min in 37° C., followed by staining with Alexa488-Fluor goat anti-mouse IgG1 secondary antibody (Molecular Probes, Cat #: A-21121), 30 min on ice. Cells were then co-stained with PE-Cy5™-conjugated mouse anti-human CD69 (BD Pharmingen, Cat #: 555532) to measure lymphocyte activation.
Once activated, lymphocytes proliferate to effectively amplify the immune response. […]

N-WASp = biological target: T1, N-WASp (Homo sapiens, UniProt O00401); assay: MST binding, YFP-N-WASp in HEK 293T cell lysate
T1 construct: expressed in transfected cells; host or cells: HEK 293T, transient transfection; unpurified cell lysate
T1 sequence (O00401 whole entry, species assumed): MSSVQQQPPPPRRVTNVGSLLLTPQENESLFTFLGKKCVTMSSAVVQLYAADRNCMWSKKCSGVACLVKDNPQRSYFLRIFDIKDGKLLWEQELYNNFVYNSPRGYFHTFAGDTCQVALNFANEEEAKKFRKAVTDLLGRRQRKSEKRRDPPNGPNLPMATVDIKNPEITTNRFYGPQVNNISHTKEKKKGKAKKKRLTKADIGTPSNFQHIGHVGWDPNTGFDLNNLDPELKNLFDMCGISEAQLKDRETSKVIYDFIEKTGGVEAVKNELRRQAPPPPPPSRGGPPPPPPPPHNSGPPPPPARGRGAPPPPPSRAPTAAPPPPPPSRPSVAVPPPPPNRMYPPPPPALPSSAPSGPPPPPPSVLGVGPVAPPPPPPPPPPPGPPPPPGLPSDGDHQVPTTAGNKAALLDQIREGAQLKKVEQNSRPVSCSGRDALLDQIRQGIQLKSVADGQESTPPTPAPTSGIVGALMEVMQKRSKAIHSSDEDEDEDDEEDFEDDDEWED
Protocol: Diluted cell lysates of YFP-WASp/N-WASp/WAVE2-expressing HEK 293T cells were incubated with serially-diluted (100 μM-3 nM) SMCs. The mixed lysates and SMCs were then loaded into standard-treated Monolith™ capillaries and the fluorescence of the samples was measured by the Monolith NT.115 instrument at 60% MST power. Binding curves of WASp with SMC #6 (FIG. 3A), SMC #30 (FIG. 3B), SMC #33 (FIG. 3C), SMC #34 (FIG. 3D) and Y-27632 (FIG. 3E) or of N-WASp (FIG. 3F) or WAVE2 (FIG. 3G) with SMC #34 were generated by the NanoTemper Analysis 2.231 software. Normalized fluorescence (hot fluorescence/initial fluorescence) is plotted as a function of SMC concentration. […]
YFP-tagged WASp was obtained from cell lysates of Human Embryonic Kidney (HEK) 293T, transiently transfected with YFP-WASp/WAVE2/N-WASp by DNA-calcium phosphate co-precipitation as previously described (Reicher et al, 2012). […] After loading into the instrument (Monolith NT.115, NanoTemper), the samples were measured by standard protocols at 60% MST power. […] KD values were determined using the NanoTemper analysis software (NT Analysis 1.5.37 or 2.2.31).
Following this in silico screening, the inventors identified eight SMCs (#6, #23, #24, #25, #30, #32, #33, #34, see Table 1). […] The SMCs that specifically bind the degradation pocket of WASp were further evaluated by the inventors.

YFP-WASp R86C or Y107C = assay: WASp expression in WASp knockout Jurkat lines expressing only YFP-WASp R86C or Y107C (western blot); type: cell-based, human; conditions: WAS−/−/WASp R86C or Y107C, vs control-treated cells
Protocol: The cells were then co-stimulated with anti-CD3 and anti-CD28 and analyzed by western blot as described in FIG. 14B. […] Relative protein expression was determined by densitometric analysis and is presented below the corresponding lanes.
CRISPR/CAS9 knockdown of endogenous WASp in T-cells was conducted according to published protocol (Ran F A et al, 2013). The vector pSpCas9 (BB)-2A-GFP (PX458) was purchased from Addgene, plasmid #48138. RNA guides were designed to target an intron/exon junction in the WAS gene, in order to eliminate gene silencing of exogenous YFP-WASp. RNA guide sequences aimed for WASp locus were constructed using the online CRISPR design tool algorithm (Zhang Lab) and NCBI gene. The guides which received the highest score were selected to be subcloned into the pSpCas9 (BB)-2A-GFP (PX458) vector.
The sequence present in WASp exons is bold. The sequence that is complementary to WASp intron (chromosome X, GRCh38.p7 nucleotides 1883-1890) is underlined. Knockout of endogenous WASp was conducted in Jurkat cells alone or in Jurkat cells stably expressing YFP-WASp containing the following mutations, R86C (as denoted by SEQ ID NO. 13 and encoded by SEQ ID NO. 14) or Y107C (as denoted by SEQ ID NO. 15 and encoded by SEQ ID NO. 16). […]
Cells exclusively expressing the YFP-WASp mutants were incubated with SMC #34 or solvent, stimulated and analyzed by western blot.

Row | SMILES | lymphocyte activation (CD69, activated LFA-1) (Jurkat T cells) | binding to N-WASp (N-WASp) | WASp expression in cells exclusively expressing the YFP-WASp mutants (YFP-WASp R86C or Y107C)
1 | CC(=O)N[C@H]1C[C@@H](c2ccc3c(c2)nnn3C)O[C@@H](c2ccc(Cl)cc2)C1 [SMC #6, N-[(2R,4R,6S)-2-(4-chlorophenyl)-6-(1-methylbenzotriazol-5-yl)oxan-4-yl]acetamide] | upregulation |  | 
2 | CC1CCCC(C)N1C(=O)CSc1nnc(COc2cccc3cccnc23)o1 (stereo not drawn) [SMC #34, 1-(2,6-dimethylpiperidin-1-yl)-2-[[5-(quinolin-8-yloxymethyl)-1,3,4-oxadiazol-2-yl]sulfanyl]ethanone] |  | no binding | increased WASp expression
